Reference: a melting point compilation (Tetko et al.; mined from patent text by program, amines drawn as free bases though some values may be those of a salt)

First: NC(=O)C1CCCN(C(c2ccccc2)c2ccccc2)C1 (stereo not drawn)
Second: CC(C)(C)OC(=O)N[C@@H](C(=O)N1CCC[C@H]1C(=O)NCC1CCc2nc(N)ncc2C1)C(c1ccccc1)c1ccccc1 (stereo partly drawn)
The melting point of the first is lower: 86 to 87 °C for the first, 127 to 130 °C for the second.

First: CC(C)n1nc(C(Cl)C(=O)c2ccc(F)cc2)ccc1=O (stereo not drawn)
Second: Cc1csc(C2=CCN(CCCC(=O)c3ccc(F)cc3)CC2)n1
The melting point of the first is higher: 86.5 to 88 °C for the first, 81 to 82 °C for the second.

First: Nc1c2c(nc3cccc(Cl)c13)CCCC2
Second: Cc1cccc2c1CCN=C2c1ccc(Br)cc1
The melting point of the first is higher: 144 to 145 °C for the first, 60 to 61.5 °C for the second.

First: COc1ccc(-n2nnc(-c3ccc(Cl)cc3C(F)(F)F)c2N)cc1
Second: Nc1ccc2ccc(Oc3ccc(Cl)cc3)nc2n1
The melting point of the first is lower: 159 to 160 °C for the first, 177 °C for the second.

First: COc1ccc(Cc2ccc(C(=O)N(C3CCCC3)C3CCCC3)cc2)cc1OC
Second: COc1ccc(CCc2ccc(NC(=O)C(=O)c3sc4ccccc4c3O)cc2)cc1OC
The melting point of the first is lower: 138 to 142 °C for the first, 203 °C for the second.

First: CS(=O)c1ccc(-n2cnc3ccc(-c4nnc(SCc5cccc(F)c5)o4)cc32)cc1 (stereo not drawn)
Second: CSc1ccc(Cn2c(C)c(CC(=O)O)c3cc(OCc4nc5ccccc5s4)ccc32)cc1
The melting point of the first is lower: 137 to 138 °C for the first, 186 to 187 °C for the second.

Compared with `Cc1cccc(C)c1NC(=O)CCCCCc1cccnc1`, `CCOC(=O)CCc1cc(C(=O)c2ccc(C(=O)OCC)cc2)ccc1OCCCCCBr` is lower in melting point: 98 to 100 °C for the first, 76.5 to 78 °C for the second.

Compared with `Cc1ccc(NS(=O)(=O)c2ccccc2)cc1`, `Cn1c(-c2ccc(Cl)c(S(N)(=O)=O)c2)csc1=Nc1ccccc1` is higher in melting point: 118 to 119 °C for the first, 168 to 171 °C for the second.

Compared with `Cc1cc(I)cc2[nH]c(=O)oc12`, `O=C(O)c1cc2cc(F)c(C(F)(F)F)cc2[nH]1` is lower in melting point: 248 to 250 °C for the first, 178 to 180 °C for the second.

First: O=C(O)CCC(=NO)c1ccc(-c2ccc(Br)cc2)cc1
Second: CCCCCCCCOc1ccc(-c2ccc(O)cc2)cc1
The melting point of the first is higher: 175 to 176 °C for the first, 154 °C for the second.

First: COCC1CN(c2ccc3cc(O)ccc3c2)C(=O)O1 (stereo not drawn)
Second: CCc1noc(-c2cn(-c3cccc(OC4CCCC4)c3)cn2)n1
The melting point of the first is higher: 190 to 191 °C for the first, 132 °C for the second.

First: CCCCCCCCC(=O)NCC(=O)O
Second: CCCCCCCCCCc1cnc(-c2ccc(OCC(C)(C#N)CCCC)cc2)nc1 (stereo not drawn)
The melting point of the first is higher: 106 to 109 °C for the first, 43 °C for the second.

`CC(C)(C)OC(=O)CN1CCN(c2ccnc(-c3nc(=O)c4ccccc4s3)c2)C1=O` and `Cn1c(C(F)(F)F)cc(=O)n(-c2ccc3snc(C(C)(C)C(N)=O)c3c2)c1=O` cannot be ordered by melting point: 192 to 194 °C for the first, 192 to 196 °C for the second.

First: COc1cc([N+](=O)[O-])cnc1Cl
Second: O=C(Cl)N1CC(Oc2ccc(F)cc2Cl)C1
The melting point of the first is lower: 40 to 41 °C for the first, 93 to 94 °C for the second.

First: COc1ccc(-c2cn(C)cc(-c3ccccc3)c2=O)cc1OC
Second: O=c1c2ccccc2c(-c2ccc(Cl)cc2)nn1CCc1ccncc1
The melting point of the first is higher: 154 to 157 °C for the first, 142 to 144 °C for the second.

First: CN1CCCC(c2nc3cccnc3[nH]2)C1 (stereo not drawn)
Second: O=C(N[C@H]1CC[C@H](N2CCN(c3ccccn3)CC2)CC1)c1ccccc1
The melting point of the first is lower: 141 to 144 °C for the first, 241 to 244 °C for the second.

First: CCCC[C@]1(CC)CS(=O)(=O)c2cc(O)c(O)cc2[C@@H](c2ccccc2)N1
Second: CNCCC(=O)N1c2ccccc2N2CCc3cccc(c32)C1C (stereo not drawn)
The melting point of the first is lower: 117 to 118 °C for the first, 124 to 126 °C for the second.

First: CCOc1c(C)c(NC(=O)CC(C)(C)C)c(C)c2c1OCC2c1ccc(C(C)C)cc1 (stereo not drawn)
Second: CON1CCn2c(OC(=O)C(C)(C)C)c(-c3c(C)cc(C)cc3C)c(=O)n2CC1
The melting point of the first is higher: 174 to 175 °C for the first, 147 to 148 °C for the second.

First: O=C(O)CCN1CCN(C2=Nc3ccccc3Sc3ccc(Cl)cc32)CC1
Second: Clc1cnn(CCCCN2CCN(c3ccccc3)CC2)c1
The melting point of the first is higher: 120 to 121 °C for the first, 58 to 61 °C for the second.

First: CCCCCNc1cccc2c1CN(C1CCC(=O)NC1=O)C2=O (stereo not drawn)
Second: CCCOc1ccccc1-c1ncc(N)c(=O)[nH]1
The melting point of the first is higher: 244 to 246 °C for the first, 157 to 158 °C for the second.

Compared with `COc1ccc(-c2noc3c2CCC(C(=O)O)CC3)cc1` (stereo not drawn), `CC(=O)c1ccc2c3c1ccn3C(=O)CNC2` is higher in melting point: 147 to 148 °C for the first, 285 to 287 °C for the second.

Compared with `C(=Cc1ccccc1)C=NC1CCOc2ccccc21` (stereo not drawn), `Cc1cccc2c(Nc3cc(CO)cc(NC(=O)Nc4ccc(N(CCCl)CCCl)cc4)c3)c3ccccc3nc12` is higher in melting point: 106 to 107 °C for the first, 251 to 252 °C for the second.

First: Cn1ncc2[nH]c3ccc(Cc4ccc(C#N)cc4)cc3c(=O)c21
Second: CNCCc1c[nH]c2ccc3c(=O)[nH]ccc3c12
The melting point of the first is higher: 291 °C for the first, 160 °C for the second.

First: OC1CCCCCC1n1cncn1 (stereo not drawn)
Second: C=C1C[C@@H]2C(=O)NC(=O)[C@@H]2C1
The melting point of the first is lower: 85 to 86 °C for the first, 135 to 137 °C for the second.

Compared with `N#Cc1cc(C(F)(F)F)[nH]c1-c1sc(Cl)c(Cl)c1Cl`, `Nc1nc(F)cc(OC(F)(F)F)n1` is lower in melting point: 220 to 221 °C for the first, 86 to 89 °C for the second.

First: NCCc1csc(N)n1
Second: C=CCOC(=O)c1c(C)nc2c(cnn2CCCC#N)c1N
The melting point of the first is lower: 69 to 71 °C for the first, 86 °C for the second.

For `C=C(C)C(=O)OCCOc1ccc(OCCOC(=O)c2ccc(O)c(Cl)c2)cc1`, the melting point was 105 to 106 °C.
